Results as given in patent publication US11000033B2, “Ketone or oxime compound, and herbicide” (NISSAN CHEMICAL CORPORATION, priority 2014, dated 2021).

Assays:
Type in all cases: in vivo
[1] = test system: Abutilon theophrasti; test: Test Example 5: herbicidal effect by foliage application, plastic box (symbol M); details: 320 g/ha, 3 weeks after application
Method in brief: (§1)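 Post-emergence spray; diluvial soil (sterilized), ~1.5 cm seed cover; greenhouse 25–30° C; 14-day-old plants; water-diluted emulsion at predetermined dose; visual score at 3 wk post-treatment.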

[2] = test system: Apera spica-venti; test: Test Example 5: herbicidal effect by foliage application, plastic box (symbol L); details: 320 g/ha, 3 weeks after application
Method in brief: as §1

[3] = test system: Abutilon theophrasti; test: Test Example 4: herbicidal effect by soil treatment (symbol M); details: application herbicide amount 320 g/ha
Method in brief: (§2)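 Seeds were sown in sterilized diluvial soil, covered with about 1.5 cm of soil, and the soil surface was sprayed with a water-diluted emulsion of the compound at a predetermined rate. Plants grew in a greenhouse at 25° C. to 30° C.; effects were scored visually 3 weeks after application.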

[4] = test system: Setaria viridis; test: Test Example 5: herbicidal effect by foliage application, plastic box (symbol G); details: 320 g/ha, 3 weeks after application
Method in brief: as §1

[5] = test system: Setaria viridis; test: Test Example 4: herbicidal effect by soil treatment (symbol G); details: application herbicide amount 320 g/ha
Method in brief: as §2

[6] = test system: directly sowed rice plant; test: Test Example 3: effect on crop by foliage application, Wagner pot (symbol b); details: application herbicide amount 320 g/ha
Method in brief: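 Wagner pot (1/10000 are), alluvial soil, submerged 0.1–0.5 cm; sown E. crus-galli var. crus-galli, L. chinensis, C. difformis, rice; greenhouse 25–30 °C.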

[7] = test system: Amaranthus retroflexus; test: Test Example 4: herbicidal effect by soil treatment (symbol N); details: application herbicide amount 320 g/ha
Method in brief: as §2

[8] = test system: Digitaria ciliaris; test: Test Example 4: herbicidal effect by soil treatment (symbol F); details: application herbicide amount 320 g/ha
Method in brief: as §2

[9] = test system: Veronica persica; test: Test Example 4: herbicidal effect by soil treatment (symbol R); details: application herbicide amount 320 g/ha
Method in brief: as §2

[10] = test system: Galium spurium; test: Test Example 4: herbicidal effect by soil treatment (symbol Q); details: application herbicide amount 320 g/ha
Method in brief: as §2

[11] = test system: beet; test: Test Example 5: effect on crop by foliage application, plastic box (symbol f); details: 320 g/ha, 3 weeks after application
Method in brief: (§3)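 Soil: sterilized diluvial. Container: plastic box, 21 × 13 cm, 7 cm deep. Sowing: spot-like, ~1.5 cm cover. Growth: greenhouse, 25° C. to 30° C.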

[12] = test system: Avena fatua; test: Test Example 5: herbicidal effect by foliage application, plastic box (symbol I); details: 320 g/ha, 3 weeks after application
Method in brief: as §1

[13] = test system: Stellaria media; test: Test Example 4: herbicidal effect by soil treatment (symbol P); details: application herbicide amount 320 g/ha
Method in brief: as §2

[14] = test system: Echinochloa crus-galli var. crus-galli; test: Test Example 5: herbicidal effect by foliage application, plastic box (symbol H); details: 320 g/ha, 3 weeks after application
Method in brief: as §1

[15] = test system: Lolium multiflorum Lam.; test: Test Example 4: herbicidal effect by soil treatment (symbol K); details: application herbicide amount 320 g/ha
Method in brief: as §2

[16] = test system: Chenopodium album; test: Test Example 4: herbicidal effect by soil treatment (symbol O); details: application herbicide amount 320 g/ha
Method in brief: as §2

[17] = test system: rapeseed; test: Test Example 5: effect on crop by foliage application, plastic box (symbol g); details: 320 g/ha, 3 weeks after application
Method in brief: as §3

[18] = test system: Leptochloa chinensis; test: Test Example 3: herbicidal effect by foliage application, Wagner pot (symbol D); details: application herbicide amount 320 g/ha
Method in brief: (§4)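 Herbicidal activity was rated three weeks after a foliar spray of diluted emulsion concentrate, applied at a predetermined dose to plants grown for 14 days from seed in waterlogged alluvial soil within a 25–30 °C greenhouse.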

[19] = test system: rice plant; test: Test Example 5: effect on crop by foliage application, plastic box (symbol b); details: 320 g/ha, 3 weeks after application
Method in brief: as §3

[20] = test system: Echinochloa crus-galli var. crus-galli; test: Test Example 3: herbicidal effect by foliage application, Wagner pot (symbol H); details: application herbicide amount 320 g/ha
Method in brief: as §4

[21] = test system: transplanted rice plant; test: Test Example 1: effect on crop, application before weed generation in submerged conditions (symbol a); details: application herbicide amount 320 g/ha
Method in brief: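 Rice at 2.5 leaf stage transplanted into submerged soil (4 cm depth) sown with three weed species; herbicide applied before weed emergence.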

[22] = test system: Stellaria media; test: Test Example 5: herbicidal effect by foliage application, plastic box (symbol P); details: 320 g/ha, 3 weeks after application
Method in brief: as §1

Row | Structure (SMILES) | M: Abutilon theophrasti, herbicidal effect (criteria of Test Example 1) [1] | L: Apera spica-venti, herbicidal effect (criteria of Test Example 1) [2] | Herbicidal effect grade, M: Abutilon theophrasti [3] | G: Setaria viridis, herbicidal effect (criteria of Test Example 1) [4] | Herbicidal effect grade, G: Setaria viridis [5] | effect on crop b (directly sowed rice plant), grade 0-5 [6] | Herbicidal effect grade, N: Amaranthus retroflexus [7] | Herbicidal effect grade, F: Digitaria ciliaris [8] | Herbicidal effect grade, R: Veronica persica [9] | Herbicidal effect grade, Q: Galium spurium [10] | f: beet, effect on crop (criteria of Test Example 1) [11] | I: Avena fatua, herbicidal effect (criteria of Test Example 1) [12] | Herbicidal effect grade, P: Stellaria media [13] | H: Echinochloa crus-galli var. crus-galli, herbicidal effect (criteria of Test Example 1) [14] | Herbicidal effect grade, K: Lolium multiflorum Lam. [15] | Herbicidal effect grade, O: Chenopodium album [16] | g: rapeseed, effect on crop (criteria of Test Example 1) [17] | herbicidal effect on D (Leptochloa chinensis), grade 0-5 [18] | b: directly sowed rice plant, effect on crop (criteria of Test Example 1) [19] | herbicidal effect on H (Echinochloa crus-galli var. crus-galli), grade 0-5 [20] | further results
1 | CON=C(C)CC1CC(O)=C(c2c(C)cc(-c3ccc(Cl)cc3Cl)cc2C)C1=O (stereo not drawn) [6-088] | 3 (Herbicidal ratio of 40% or higher and lower than 70%) | 5 (Herbicidal ratio of 90% or more (almost completely withered)) | 3 (Herbicidal ratio of 40% or higher and lower than 70%) | 5 (Herbicidal ratio of 90% or more (almost completely withered)) | 5 (Herbicidal ratio of 90% or more (almost completely withered)) | 5 (Herbicidal ratio of 90% or more (almost completely withered)) | 0 (Herbicidal ratio of 5% or lower (almost no effect)) | 5 (Herbicidal ratio of 90% or more (almost completely withered)) | 4 (Herbicidal ratio of 70% or higher and lower than 90%) | 4 (Herbicidal ratio of 70% or higher and lower than 90%) | 0 (Herbicidal ratio of 5% or lower (almost no effect)) | 5 (Herbicidal ratio of 90% or more (almost completely withered)) | 5 (Herbicidal ratio of 90% or more (almost completely withered)) | 5 (Herbicidal ratio of 90% or more (almost completely withered)) | 5 (Herbicidal ratio of 90% or more (almost completely withered)) | 5 (Herbicidal ratio of 90% or more (almost completely withered)) | 4 (Herbicidal ratio of 70% or higher and lower than 90%) | 5 (Herbicidal ratio of 90% or more (almost completely withered)) | 5 (Herbicidal ratio of 90% or more (almost completely withered)) | 5 (Herbicidal ratio of 90% or more (almost completely withered)) | Effect grade on crop, a: transplanted rice plant [21]: 3 (Herbicidal ratio of 40% or higher and lower than 70%); P: Stellaria media, herbicidal effect (criteria of Test Example 1) [22]: 4 (Herbicidal ratio of 70% or higher and lower than 90%)
2 | CON=C(C)CC1CC(OC(=O)COc2ccccc2)=C(c2c(C)cc(C)cc2OC)C1=O (stereo not drawn) [6-091] | 4 (Herbicidal ratio of 70% or higher and lower than 90%) | 5 (Herbicidal ratio of 90% or more (almost completely withered)) | 5 (Herbicidal ratio of 90% or more (almost completely withered)) | 5 (Herbicidal ratio of 90% or more (almost completely withered)) | 5 (Herbicidal ratio of 90% or more (almost completely withered)) | 5 (Herbicidal ratio of 90% or more (almost completely withered)) | 4 (Herbicidal ratio of 70% or higher and lower than 90%) | 5 (Herbicidal ratio of 90% or more (almost completely withered)) | 4 (Herbicidal ratio of 70% or higher and lower than 90%) | 0 (Herbicidal ratio of 5% or lower (almost no effect)) | 3 (Herbicidal ratio of 40% or higher and lower than 70%) | 5 (Herbicidal ratio of 90% or more (almost completely withered)) | 4 (Herbicidal ratio of 70% or higher and lower than 90%) | 5 (Herbicidal ratio of 90% or more (almost completely withered)) | 5 (Herbicidal ratio of 90% or more (almost completely withered)) | 3 (Herbicidal ratio of 40% or higher and lower than 70%) | 5 (Herbicidal ratio of 90% or more (almost completely withered)) | 5 (Herbicidal ratio of 90% or more (almost completely withered)) | 5 (Herbicidal ratio of 90% or more (almost completely withered)) | 5 (Herbicidal ratio of 90% or more (almost completely withered)) | Effect grade on crop, a: transplanted rice plant [21]: 5 (Herbicidal ratio of 90% or more (almost completely withered)); P: Stellaria media, herbicidal effect (criteria of Test Example 1) [22]: 4 (Herbicidal ratio of 70% or higher and lower than 90%)
3 | CON=C(C)CC1CC(OS(=O)(=O)N(C)C)=C(c2c(C)cc(C)cc2OC)C1=O (stereo not drawn) [6-095] | 4 (Herbicidal ratio of 70% or higher and lower than 90%) | 5 (Herbicidal ratio of 90% or more (almost completely withered)) | 5 (Herbicidal ratio of 90% or more (almost completely withered)) | 5 (Herbicidal ratio of 90% or more (almost completely withered)) | 5 (Herbicidal ratio of 90% or more (almost completely withered)) | 5 (Herbicidal ratio of 90% or more (almost completely withered)) | 1 (Herbicidal ratio of 5% or higher and lower than 20%) | 5 (Herbicidal ratio of 90% or more (almost completely withered)) | 0 (Herbicidal ratio of 5% or lower (almost no effect)) | 0 (Herbicidal ratio of 5% or lower (almost no effect)) | 0 (Herbicidal ratio of 5% or lower (almost no effect)) | 5 (Herbicidal ratio of 90% or more (almost completely withered)) | 0 (Herbicidal ratio of 5% or lower (almost no effect)) | 5 (Herbicidal ratio of 90% or more (almost completely withered)) | 5 (Herbicidal ratio of 90% or more (almost completely withered)) | 0 (Herbicidal ratio of 5% or lower (almost no effect)) | 4 (Herbicidal ratio of 70% or higher and lower than 90%) | 5 (Herbicidal ratio of 90% or more (almost completely withered)) | 5 (Herbicidal ratio of 90% or more (almost completely withered)) | 5 (Herbicidal ratio of 90% or more (almost completely withered)) | Effect grade on crop, a: transplanted rice plant [21]: 5 (Herbicidal ratio of 90% or more (almost completely withered)); P: Stellaria media, herbicidal effect (criteria of Test Example 1) [22]: 1 (Herbicidal ratio of 5% or higher and lower than 20%)
